The structures appear in SMILES notation. Counter-ions that a name gives are not always drawn. Some results are limits rather than exact numbers.

The target of this assay is T1, Bet bromodomain protein (BRD4) (Homo sapiens, UniProt O60885).
T1 construct: made in house
Kind of assay: Bet bromodomain TR-FRET assay. To be noted: 300 nM acetyl histone peptide substrate, results given as Group A/B/C. The assay is classed as binding. The method, then: In-Vitro Biochemical Data of bicyclic heterocyclic derivatives in time-resolved fluorescence resonance energy transfer (TR-FRET) assay.
The Bet brommodomain TR-FRET assay has been used to identify compounds that bind to bet bromodomain and prevent its interaction with acetylated histone peptides.
In the assay, optimized concentration of in-house Bet bromodomain protein (BRD4) and 300 nM of acetyl histone peptide substrate were diluted in assay buffer (50 mM HEPES, pH: 7.5, 50 mM NaCl, 500 μM CHAPS) and were added to the positive control and test control wells in a 384 well plate. Substrate control wells have 300 nM of acetyl histone peptide substrate diluted in assay buffer. Buffer blank wells were added with assay buffer. The reaction mixture was allowed for incubation at room temperature for 30 mins. Stock solutions of test compounds at 20 mM DMSO are prepared. Compounds are serially diluted and added to the test wells in 384-well polypropylene plates. The reaction mixture was further incubated for 30 mins at room temperature on a plate shaker. 2 nM of Europium labeled streptavidn and 10 nM of XL-665 labeled antibody diluted in detection buffer (50 mM HEPES, pH: 7.5, 50 mM NaCl, 500 μM CHAPS and 800 mM KF) were added to all the wells excluding the buffer blank wells. The reaction plate was incubated for additional 30 mins at room temperature on plate shaker. The plate was read in Perkin Elmer WALLAC 1420 Multilabel Counter Victor 3 (Ex: 340 nm Em: 615 and 665 nm). The amount of displacement of the peptide was measured as ratio of specific 665 nm energy transfer signal to 615 nm signals. The compounds IC50 was determined by fitting the dose response data to sigmoid curve fitting equation using Graph Pad Prism software V5.
Consider `COc1cc2c(ccc(=O)n2Cc2ccccn2)cc1-n1c(C)c[nH]c1=O` [Compound 91, 7-methoxy-6-(5-methyl-2-oxo-2,3-dihydro-1H-imidazol-1-yl)-1-(pyridin-2-ylmethyl)quinolin-2(1H)-one], for which the IC50 was greater than 3000 nM. The figure for `COc1cc2c(cc1-c1c(C)noc1C)OCCN2Cc1ccc(Cl)cc1` [Compound 1, 4-(4-chlorobenzyl)-7-(3,5-dimethylisoxazol-4-yl)-6-methoxy-3,4-dihydro-2H-benzo[b][1,4]oxazine] is no more than 1000 nM; for `COc1cc2c(cc1-c1c(C)noc1C)CC(C)(C)C(=O)N2Cc1ccccn1` [Compound 52, 6-(3,5-dimethytisoxazol-4-yl)-7-methoxy-3,3-dimethyl-1-(pyridin-2-ylmethyl)-3,4-dihydroquinolin-2(1H)-one] it is greater than 3000 nM; for `COc1cc2c(ccc(=O)n2Cc2ccccn2)cc1-c1cnoc1C` [Compound 63, 7-methoxy-6-(5-methylisoxazol-4-yl)-1-(pyridin-2-ylmethyl)quinolin-2(1H)-one] it is greater than 3000 nM. The figure for `Cc1noc(C)c1-c1cc2ccc(=O)n(Cc3ccccn3)c2cc1OCCC1CCNC1` (stereo not drawn) [Compound 89, 6-(3,5-dimethylisoxazol-4-yl)-1-(pyridin-2-ylmethyl)-7-(2-(pyrrolidin-3-yl)ethoxy)quinolin-2(1H)-one hydrochloride] is no more than 1000 nM.

Turning to `COc1cc2c(ccc(=O)n2Cc2ncccc2F)cc1-c1c(C)noc1C` [Compound 9, 6-(3,5-dimethylisoxazol-4-yl)-1-((3-fluoropyridin-2-yl)methyl)-7-methoxyquinolin-2(1H)-one], the half-maximal inhibitory concentration (IC50) was no more than 1000 nM. In the case of `COc1cc2c(ccc(=O)n2Cc2ccccn2)cc1-c1ccc(O)nc1` [Compound 61, 6-(6-hydroxypyridin-3-yl)-7-methoxy-1-(pyridin-2-ylmethyl)quinolin-2(1H)-one] it was greater than 3000 nM. `COc1cc2c(cc1-c1c(C)noc1C)OCC(=O)N2CCc1ccccn1` [Compound 35, 7-(3,5-dimethylisoxazol-4-yl)-6-methoxy-4-(2-(pyridin-2-yl)ethyl)-2H-benzo[b][1,4]oxazin-3(4H)-one] displayed a half-maximal inhibitory concentration (IC50) of 1000 to 3000 nM. In the case of `COc1ccc(CN2C(=O)COc3cc(-c4c(C)noc4C)c(OC)cc32)nc1` [Compound 30, 7-(3,5-dimethylisoxazol-4-yl)-6-methoxy-4-((5-methoxypyridin-2-yl)methyl)-2H-benzo[b][1,4]oxazin-3(4H)-one] it was 1000 to 3000 nM; in that of `COc1cc2c(ccc(=O)n2CCN2CCOCC2)cc1-c1c(C)noc1C` [Compound 38, 6-(3,5-dimethylisoxazol-4-yl)-7-methoxy-1-(2-morpholinoethyl)quinolin-2(1H)-one], no more than 1000 nM; in that of `COc1cc2c(cc1-c1c(C)noc1C)cc(CC#N)c(=O)n2CCc1ccc(Cl)cc1` [Compound 106, 2-(1-(4-chlorophenethyl)-6-(3,5-dimethylisoxazol-4-yl)-7-methoxy-2-oxo-1,2-dihydroquinolin-3-yl)acetonitrile], no more than 1000 nM. In the case of `COc1cc2c(cc1-c1c(C)noc1C)cc(C1CCCCC1)c(=O)n2Cc1ccccn1` [Compound 68, 3-cyclohexyl-6-(3,5-dimethylisoxazol-4-yl)-7-methoxy-1-(pyridin-2-ylmethyl)quinolin-2(1H)-one] it was no more than 1000 nM; in that of `COc1cc2c(ccc(=O)n2C(C)c2ccccn2)cc1-c1c(C)noc1C` (stereo not drawn) [Compound 40, 6-(3,5-dimethytisoxazol-4-yl)-7-methoxy-1-(1-(pyridin-2-yl)ethyl)quinolin-2(1H)-one], no more than 1000 nM; in that of `COc1cc2c(cc1-c1c(C)noc1C)cc(CF)c(=O)n2Cc1ccccn1` [Compound 97, 6-(3,5-dimethylisoxazol-4-yl)-3-(fluoromethyl)-7-methoxy-1-(pyridin-2-ylmethyl)quinolin-2(1H)-one], no more than 1000 nM. In the case of `COc1cc2c(cc1-c1c(C)noc1C)OCC(=O)N2Cc1ccc(F)cn1` [Compound 29, 7-(3,5-dimethylisoxazol-4-yl)-4-((5-fluoropyridin-2-yl)methyl)-6-methoxy-2H-benzo[b][1,4]oxazin-3(4H)-one] it was no more than 1000 nM.

(Values after US10590118B2, “Bicyclic heterocyclic derivatives as bromodomain inhibitors” (Orion Corporation, priority 2014, dated 2020).)
